Here are results for four compounds from patent US20210393791A1, “COMBINATION TREATMENT WITH ANTI-CD123 ANTIBODY DRUG CONJUGATE AND PARP INHIBITOR” (Health Research, Inc., priority 2018, published 2021).

Test [1] relates to primary CD123+ AML cells from patients with relapsed/refractory disease. Description: Short-term culture of primary relapsed/refractory AML patient samples. It is filed as cell-based, human. As to conditions: single agent, in vitro. On the procedure:
(§1) CD123 expression on human AML cell lines (HEL, HL60, MV411, Molm13, EOL-1, THP-1, and Kasumi-1) was quantified by flow cytometry using QuantriBrite beads. AML cells were continuously cultured for 72-96 hours with varying doses of IMGN632 (range 100 pM-100 nM) and specific PARP inhibitors (range 100 pM-15 μM) alone and in combination. Cell viability was measured using a WST-8 colorimetric assay. Primary clinically annotated CD123+AML cells from patients with relapsed/refractory disease were obtained under IRB-approved protocols from the Roswell Park (Buffalo, N.Y.) Hematologic Procurement Shared Resource and cultured short-term in the presence of multiple cytokines plus IMGN632+/−PARP inhibitors. Apoptosis (Annexin V/PI), cell cycle, and DNA damage (H2AX) were evaluated by flow cytometry. Additive vs. synergistic effects were determined by combination indices using Compusyn software. PARP trapping was evaluated by Western blot analysis in nuclear lysates obtained from IMGN632+/−PARP inhibitors treated AML cells.

Another test concerns preclinical AML models. As to conditions: Portwood S et al, ASH 2016; cited from earlier work.
The next test has as its system human AML cell lines. Description: AML cell line viability, WST-8 colorimetric assay. It is filed as cell-based. Conditions: 120 h, continuous single agent 5-day treatment, read-out: IC50, in vitro inhibition of AML cell line growth. On the procedure: as §1, with “AML cells were continuously cultured for 72-96 hours with varying doses of IMGN632 (range 100 pM-100 nM) and specific PARP inhibitors (range 100 pM-15 μM) alone and in combination.” left out

Consider `O=C(c1cc(Cc2n[nH]c(=O)c3ccccc23)ccc1F)N1CCN(C(=O)C2CC2)CC1` [olaparib], for which, in test [1], the “activity against primary relapsed/refractory AML patient samples” value is given as “single agent activity”. The “effect on activity of the CD33-targeted ADC IMGN779” value in the test on preclinical AML models was “synergistically enhance”. For `Cn1ncnc1[C@H]1c2n[nH]c(=O)c3cc(F)cc(c23)N[C@@H]1c1ccc(F)cc1` [talazoparib], the IC50 in the test on human AML cell lines was determined as 0.36 µM. Moreover, the “activity against primary relapsed/refractory AML patient samples” value in test [1] is on record as “single agent activity”. With `C[C@]1(c2nc3c(C(N)=O)cccc3[nH]2)CCCN1` [veliparib], the IC50 with human AML cell lines was 78 µM.

With IMGN632, the “activity against primary relapsed/refractory AML patient samples” value in test [1] was “single agent activity”.
